Experimental data as given in paper PMC4388757, “In Vitro and In Vivo Metabolism and Inhibitory Activities of Vasicine, a Potent Acetylcholinesterase and Butyrylcholinesterase Inhibitor” (PLoS ONE, 2015).
Counter-ions that a name gives are not always drawn. Like-named read-outs stand apart in the source and are kept apart here.

What was measured:
[1] = Metabolite detection in rat bio-specimens (urine, feces, bile, plasma) by UPLC/ESI-QTOF-MS after oral VAS; assay type: in vivo
Text: Bio-specimens (urine, feces, bile and plasma) collected form 18 male rats were used to study the VAS metabolism in vivo. […] Baseline urine and fecal samples were collected before oral administration of VAS. After intraperitoneal injection of urethane (1.4 g/kg), abdominal incision was made for bile sampling and the common bile duct was cannulated with a Closed IV Catheter System (ID = 0.07 cm, Becton Dickinson, USA) to collect bile samples. […] Baseline rat bile was collected before oral administration of VAS. All the samples were stored at −20°C until analysis. Blood was collected from the angular vein of the last six male rats at 0.25, 0.5, 1, and 2 h after oral administration of VAS 50 mg/kg VAS. Plasma was obtained by centrifuging blood at 4000 × g for 10 min, and then stored at −20°C until use.
Up to 1 mL of urine was thoroughly mixed with same volume of acetonitrile, and then centrifuged at 15,000 × g for 10 min. The supernatant was evaporated until dry under nitrogen at 37°C. The residue of the supernatant was re-dissolved in 200 μL of 5% methanol, and then centrifuged at 15,000 × g for 10 min. The supernatant was injected into the chromatographic systems for separation and identification of metabolites.
The supernatant was then evaporated to dryness by a gentle stream of nitrogen at 37°C. The residue was dissolved by 200 μL of 5% methanol and centrifuged at 15,000 × g for 10 min prior to injection.
Plasma or bile (400 μL) was mixed and vortexed with 1200 μL of acetonitrile for […], then centrifuged at 15,000 × g for 10 min at 4°C. Afterward, the supernatant was evaporated until dry by a gentle stream of nitrogen at 37°C. The residue was dissolved by 80 μL of 5% methanol and centrifuged at 15,000 × g for 10 min. The supernatants (5 μL) were used in the UPLC/ESI-QTOF-MS analysis.
Chromatographic analysis was performed on an HSS T3 column (100 mm × 2.1 mm, 1.8 μm particle size; Waters Corporation, Milford, MA, USA) for separation of samples using an ACQUITY UPLC system equipped with a binary solvent manager system and an autosampler. […] The flow rate was 0.4 mL/min. The column and sample-tray temperatures were maintained at 40°C and 10°C, respectively.
A Waters ACQUITY Synapt G2 Q/TOF tandem mass spectrometer was combined with the UPLC system through an electrospray ionization (ESI) interface and controlled by Masslynx software (version 4.1, Waters Corp., Manchester, UK). The positive ionization mode of ESI source was operated. The optimized conditions for maximum detection of metabolites were as follows: source temperature, 120°C; desolvation temperature, 400°C; capillary voltage, 3.0 kV; sample cone, 30 V and extraction cone, 4.0 V. The cone and desolvation gas (N2) flows were set at 75 and 800 (L/h), respectively. […] Data were collected in centroid mode and the MS^E approach using a dynamic ramp of collision energy was carried out in two scan functions. Function 1 (low energy): mass scan ranged from 100–1000,with 0.2 s scan time and 0.05 s inter-scan delay; Function 2 (high energy): mass scan ranged from 100–1000 with 0.2 s scan time, 0.05 s inter-scan delay, and collision energy ramp of 10–40 V. MS/MS analysis were operated for major metabolites to obtain additional information from product ions since the same collision energy of MS^E in Function 2 could not match each precursor ion.

[2] = Stability of glucuronide metabolites in collected urine; assay type: physicochemical; conditions: room temperature for an excessively long time, pH > 10
[3] = biological target: T1, AChE from Electrophorus electricus (Electrophorus electricus, UniProt O42275); assay: biochemical; assay type: biochemical; conditions: for fold reduction of AChE inhibitory activity: VAO vs VAS, VAO-3-S vs VAS-3-S, VAS-3-G vs VAS; for IC50: means ± SD of three replicate determinations
T1 construct: purchased Sigma Aldrich Co. (St. Louis, MO, USA)
T1 sequence (O42275 24-633): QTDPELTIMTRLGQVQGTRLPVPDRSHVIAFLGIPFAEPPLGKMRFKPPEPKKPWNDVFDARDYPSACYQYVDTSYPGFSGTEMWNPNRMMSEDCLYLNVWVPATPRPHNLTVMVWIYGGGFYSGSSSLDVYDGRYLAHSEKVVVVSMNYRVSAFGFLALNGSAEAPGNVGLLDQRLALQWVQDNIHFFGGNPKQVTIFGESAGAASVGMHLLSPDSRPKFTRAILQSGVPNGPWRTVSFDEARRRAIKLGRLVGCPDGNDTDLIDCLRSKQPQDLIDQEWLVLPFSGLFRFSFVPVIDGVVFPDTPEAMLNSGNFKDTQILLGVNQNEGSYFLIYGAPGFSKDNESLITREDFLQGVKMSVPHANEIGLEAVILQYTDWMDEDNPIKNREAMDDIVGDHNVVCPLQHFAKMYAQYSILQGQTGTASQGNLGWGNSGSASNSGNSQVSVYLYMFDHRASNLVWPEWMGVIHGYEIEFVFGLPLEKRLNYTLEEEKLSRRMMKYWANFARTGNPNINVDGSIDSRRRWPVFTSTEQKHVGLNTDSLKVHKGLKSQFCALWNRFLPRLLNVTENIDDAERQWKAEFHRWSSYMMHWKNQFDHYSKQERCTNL
Text: VAS and VAO were isolated from P. harmala in our laboratory according to a previously reported method. VAS and VAO structures were elucidated by comparing their spectral data (UV, MS, ^1H-NMR, and ^13C NMR) with the references. […] AChE from Electrophorus electricus, BChE from equine serum, acetylcholine (ACh) chloride, butyrocholine (BCh) chloride, choline (Ch) chloride, chlormequat (internal standard, IS), glucose 6-phosphate, glucose-6-phosphate dehydrogenase, NADP, UDPGA, alamethicin, fetal bovine serum, dexamethasone, and insulin were purchased from Sigma Aldrich Co. (St. Louis, MO, USA). Tris base and MgCl2 were purchased from Majorbio Biotech Corp., Ltd. (Shanghai, China). MCI Gel CHP 20P was purchased from Mitsubishi Chemical Crop. (Tokyo, Japan). Silica Gel C18 (MB 100-40/75) was purchased from Fuji Silysia Chemical Ltd. (Kasugai, Japan). Acetonitrile and methanol of HPLC grade were purchased from Fisher Scientific Co. (Santa Clara, USA). HPLC grade 96% formic acid was purchased from Tedia Co. (Fairfield, USA). Water was produced with a Milli-Q Academic System (Millipore, Billerica, MA). All other reagents and solvents were either analytical or HPLC grade.
(§1) The AChE and BChE inhibitory activities of VAS and its main metabolites, namely, VAO, VASL, VAOL, VAS-3-S, VAO-3-S, and VAS-3-G, were evaluated based on our previously established method. A 50 μL incubation system composed of 10 μL of the test compound solution (all the test compound solutions were diluted to a series of concentrations with buffer solution before each experiment) and 40 μL of the enzyme solutions (with final concentrations: 0.0035 unit/mL for AChE, or 0.008 unit/mL for BChE) were mixed and pre-incubated for 15 min. Up to 50 μL of substrate solution (final concentration of 5.505 μM for ACh, or 7.152 μM for BCh) was added into the mixture, which was then incubated for 20 min at 25°C. The reaction was terminated by addition of 300 μL of ice acetonitrile solution (0°C), which was immediately dissolved with 1.899 μM IS (chlormequat). The solution was then centrifuged (15,000 × g, 10 min), and the supernatant was used for analysis by UPLC-ESI MS/MS. The inhibitive IC50 values of VAS and its key metabolites on AChE and BChE were calculated using the Prism software (GraphPad Software Inc., San Diego, CA).

[4] = biological target: T2, BChE from equine serum (Equus caballus, UniProt P81908); assay: In vitro anticholinesterase assay (UPLC-ESI MS/MS), BChE; assay type: biochemical; conditions: for fold reduction of BChE inhibitory activity: VAO vs VAS, VAO-3-S vs VAS-3-S, VAS-3-G vs VAS; for IC50: means ± SD of three replicate determinations
T2 construct: BChE from equine serum; purchased Sigma Aldrich Co. (St. Louis, MO, USA); host or cells: equine serum
T2 sequence (P81908 whole entry): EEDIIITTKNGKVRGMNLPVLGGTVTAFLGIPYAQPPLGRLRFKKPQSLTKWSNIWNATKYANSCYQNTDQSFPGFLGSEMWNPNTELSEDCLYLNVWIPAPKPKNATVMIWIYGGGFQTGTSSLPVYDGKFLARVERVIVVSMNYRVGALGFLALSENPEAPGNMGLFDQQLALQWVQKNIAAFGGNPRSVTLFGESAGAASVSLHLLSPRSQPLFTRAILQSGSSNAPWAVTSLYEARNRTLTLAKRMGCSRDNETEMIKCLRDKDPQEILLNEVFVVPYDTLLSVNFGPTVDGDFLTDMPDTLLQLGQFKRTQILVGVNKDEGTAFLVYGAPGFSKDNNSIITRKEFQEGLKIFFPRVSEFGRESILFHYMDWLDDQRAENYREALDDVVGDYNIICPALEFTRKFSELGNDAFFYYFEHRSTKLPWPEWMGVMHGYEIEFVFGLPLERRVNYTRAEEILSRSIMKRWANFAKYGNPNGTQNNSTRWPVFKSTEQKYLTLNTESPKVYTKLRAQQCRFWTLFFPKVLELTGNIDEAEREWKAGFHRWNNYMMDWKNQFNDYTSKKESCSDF
Experimental: VAS and VAO were isolated from P. harmala in our laboratory according to a previously reported method. VAS and VAO structures were elucidated by comparing their spectral data (UV, MS, ^1H-NMR, and ^13C NMR) with the references. The purities of VAS and VAO were determined to be more than 98% through normalization of the peak areas detected by HPLC-DAD, UPLC-MS/MS, ^1H-NMR, and ^13C NMR. AChE from Electrophorus electricus, BChE from equine serum, acetylcholine (ACh) chloride, butyrocholine (BCh) chloride, choline (Ch) chloride, chlormequat (internal standard, IS), glucose 6-phosphate, glucose-6-phosphate dehydrogenase, NADP, UDPGA, alamethicin, fetal bovine serum, dexamethasone, and insulin were purchased from Sigma Aldrich Co. (St. Louis, MO, USA). Tris base and MgCl2 were purchased from Majorbio Biotech Corp., Ltd. (Shanghai, China). MCI Gel CHP 20P was purchased from Mitsubishi Chemical Crop. (Tokyo, Japan). Silica Gel C18 (MB 100-40/75) was purchased from Fuji Silysia Chemical Ltd. (Kasugai, Japan). Acetonitrile and methanol of HPLC grade were purchased from Fisher Scientific Co. (Santa Clara, USA). HPLC grade 96% formic acid was purchased from Tedia Co. (Fairfield, USA). Water was produced with a Milli-Q Academic System (Millipore, Billerica, MA). All other reagents and solvents were either analytical or HPLC grade.
as §1

[5] = set-up: method as in ref [36] = [36]; 36 Swamy G , Ravikumar K . Crystal and molecular structures of quinazolines: A ring conformational study . J Chem Crystallogr . 2005; 35 : 183 – 189 .; conditions: in vitro and in vivo; ref [36]; cited from earlier work
[6] = set-up: method as in ref [37] = [37]; 37 Bhide M , Naik P , Ghooi R . Comparative studies on the pharmacological evaluation of vasicine and vasicinone . Bull Haffkin Inst . 1976; 4 : 45 – 50 .; conditions: comparable to sodium cromoglycate; ref [37]; cited from earlier work
[7] = Bioavailability studies of VAS (unpublished data of the laboratory); conditions: in vivo, no published data; for half-life: read-out: elimination half-life (converted)
Text: (§2) It illustrated that VAS is safe as a potential candidate drug.

[8] = LD50 determination of VAS (unpublished data); conditions: in vivo; no published data
Text: as §2

[9] = tested on: rats; assay: Observation of side effects during 21-day oral dosing for urine collection; assay type: in vivo, rat; conditions: 15 rats, oral 100 mg/kg once a day for 21 consecutive days
Experimental: The urine samples used for isolating and purifying the metabolites were collected from 15 rats that were given VAS orally once a day, over 21 consecutive days, at dose of 100 mg/kg body weight. In total, approximately 5 L of urine was collected and centrifuged at 4000 × g for 15 min. The supernatant was then stored at −20°C until use. At the end of experiment, all rats were sacrificed by CO2 asphyxiation.
as §2

[10] = biological target: T1, AChE from Electrophorus electricus; set-up: method as in PMID 23270245, doi:10.1155/2013/71723, PMID 24631841; conditions: previous studies; ref [3], [6]–[8]; read-out: IC50 against AChE; cited from earlier work
[11] = biological target: T2, BChE from equine serum; set-up: method as in PMID 23270245, doi:10.1155/2013/71723, PMID 24631841; conditions: previous studies; ref [3], [6]–[8]; read-out: IC50 against BChE; cited from earlier work

| SMILES | abundance in plasma [1] | SI (AChE selectivity index, IC50 BChE/IC50 AChE) [3] | IC50 [3] | fold reduction of BChE inhibitory activity [4] | IC50 [4] | other results |
| --- | --- | --- | --- | --- | --- | --- |
| O=C(O)[C@H]1O[C@@H](O[C@H]2CCn3c2nc2ccccc2c3=O)[C@H](O)[C@@H](O)[C@@H]1O [Metabolite M21-2, vasicinone-3-O-glucuronide] | high abundance | – | – | – | – | stability in urine sample [2]: hydrolyzed |
| O=c1c2ccccc2nc2n1CCC2O (stereo not shown) [Metabolite M1, vasicinone] | high abundance | 0.133 | 76.6 ± 8.46 µM | 101.0 fold | 10.2 ± 2.08 µM | fold reduction of AChE inhibitory activity [3]: 22.7 fold; bronchodilatory effects compared with VAS [5]: more bronchodilatory effects than parent VAS; anti-asthmatic activity compared with VAS [6]: more potent anti-asthmatic activity than VAS |
| OC1CCN2C1=Nc1ccccc1C2O (stereo not shown) [Metabolite M3-3, 1,2,3,9-tetrahydropyrrolo [2,1-b] quinazolin-3,9-diol] | high abundance | – | – | – | – | – |
| O=c1c2ccccc2nc2n1CCC2OS(=O)(=O)O (stereo not shown) [Metabolite M16, 9-oxo-1,2,3,9-tetrahydropyrrolo [2,1-b] quinazolin-3-yl hydrogen sulfate] | high abundance | 0.069 | 395 ± 19.5 µM | 2.8 fold | 27.3 ± 5.03 µM | fold reduction of AChE inhibitory activity [3]: 8.0 fold |
| O=C(O)C1OC(OC2CCN3Cc4ccccc4N=C23)C(O)C(O)C1O [Metabolite M20-2, 1,2,3,9-tetrahydropyrrolo [2,1-b] quinazolin-3-β-D-glucuronide] | high abundance | 4.998 | 20.8 ± 0.329 µM | 1027.7 fold | 104 ± 15.5 µM | stability in urine sample [2]: hydrolyzed |
| Oc1ccc2c(c1)CN1CCC(O)C1=N2 (stereo not shown) [Metabolite M3-2, vasicinol] | – | 0.930 | 2.65 ± 0.432 µM | – | 2.46 ± 0.224 µM | – |
| O=S(=O)(O)OC1CCN2Cc3ccccc3N=C12 (stereo not shown) [Metabolite M15, 1,2,3,9-tetrahydropyrrolo [2,1-b] quinazolin-3-yl hydrogen sulfate] | high abundance | 0.198 | 49.6 ± 2.77 µM | – | 9.82 ± 0.925 µM | – |
| O=c1c2cc(O)ccc2nc2n1CCC2O (stereo not shown) [Metabolite M5-2, vasicinolone] | – | 1.545 | 46.9 ± 2.84 µM | – | 72.4 ± 8.63 µM | – |
| O[C@H]1CCN2Cc3ccccc3N=C12 [Metabolite M0, Vasicine] | – | 0.030 | 3.38 ± 0.03 µM | – | 0.101 ± 0.003 µM | half-life ([7]; after intravenous administration): ~300 min; bioavailability ([7]; after oral administration, read-out: absolute bioavailability): ~50%; half-life ([7]; after oral administration): ~90 min; LD50 [8]: 308 mg/kg; observable side effects [9]: no any observable side effects; IC50 [10]: 3.24 ± 0.08 µM; IC50 [11]: 100 nM |
